These results are taken from article PMC5862990, “Dynamical origins of heat capacity changes in enzyme-catalysed reactions” (Nature Communications, 2018).

The target in the assay is T1, MalL (Bacillus subtilis, UniProt O06994).
T1 construct: wild-type, recombinant, monomeric
In words: X-ray co-crystal structure. Format: binding. The conditions noted are these: co-crystallised with 0.5 mM ligand, 18 °C; active site; transition-state analogue.

T1 sequence (O06994 whole entry): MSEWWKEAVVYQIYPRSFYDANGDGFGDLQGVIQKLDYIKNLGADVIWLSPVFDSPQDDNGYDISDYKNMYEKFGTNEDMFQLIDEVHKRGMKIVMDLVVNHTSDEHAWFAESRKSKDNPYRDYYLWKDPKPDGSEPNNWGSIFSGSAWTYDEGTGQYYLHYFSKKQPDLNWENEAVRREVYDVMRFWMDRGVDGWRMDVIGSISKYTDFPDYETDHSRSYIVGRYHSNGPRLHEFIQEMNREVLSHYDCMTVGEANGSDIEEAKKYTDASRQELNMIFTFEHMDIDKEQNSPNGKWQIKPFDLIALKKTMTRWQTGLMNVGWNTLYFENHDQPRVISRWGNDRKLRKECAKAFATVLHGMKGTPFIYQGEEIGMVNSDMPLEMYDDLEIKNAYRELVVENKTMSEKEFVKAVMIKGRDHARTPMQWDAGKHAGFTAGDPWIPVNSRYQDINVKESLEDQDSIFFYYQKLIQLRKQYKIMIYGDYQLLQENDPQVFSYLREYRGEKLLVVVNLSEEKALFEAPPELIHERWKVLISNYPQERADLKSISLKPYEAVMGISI

Regarding `OC[C@H]1NC[C@H](O)[C@@H](O)[C@@H]1O` [1-deoxynojirimycin], the X-ray co-crystal structure result is “Coordinates and structure factors for MalL co-crystallised with 1-deoxynojirimycin are deposited in the PDB”.
